# Test results as given in PubChem BioAssay (NCI).
#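 Briefly, cells in 96-well plates were exposed to five compound concentrations for 48 h, and endpoints were estimated by linear interpolation. TGI: concentration producing complete growth inhibition.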
# How the values were obtained:
# Experiment in all cases: growth of human tumour cells (NCI), 48 h
# [1] = tested on: U251 CNS
# [2] = tested on: MDA-N
# [3] = tested on: SN12C renal
# [4] = tested on: HOP-92 NSCLC
# [5] = tested on: UACC-62 melanoma
# [6] = tested on: HCT-116 colon
# [7] = tested on: MDA-MB-231 breast
# [8] = tested on: UO-31 renal
# [9] = tested on: 786-0 renal
# [10] = tested on: NCI-H460 lung
# [11] = tested on: SK-OV-3 ovarian
# [12] = tested on: NCI/ADR-RES ovarian
# [13] = tested on: K-562 leukemia
# [14] = tested on: MDA-MB-435
# [15] = tested on: MOLT-4 leukemia
# [16] = tested on: IGROV1 ovarian
# [17] = tested on: A549 NSCLC
# [18] = tested on: HS 578T breast
# [19] = tested on: UACC-257 melanoma
# [20] = tested on: TK-10 renal
# [21] = tested on: PC-3 prostate
# [22] = tested on: SK-MEL-2 melanoma
# [23] = tested on: SR leukemia
# [24] = tested on: A498 renal
# [25] = tested on: HOP-62 NSCLC
# [26] = tested on: HL-60(TB) leukemia
# [27] = tested on: EKVX NSCLC
# [28] = tested on: CAKI-1 renal
# [29] = tested on: HT29 colon
# [30] = tested on: LOX IMVI melanoma
# [31] = tested on: SK-MEL-5 melanoma
# [32] = tested on: M14 melanoma
# [33] = tested on: NCI-H23 lung
# [34] = tested on: MCF7 breast
# [35] = tested on: RXF 393 renal
# [36] = tested on: BT-549 breast
# [37] = tested on: SNB-75 CNS
# [38] = tested on: OVCAR-4 ovarian
# [39] = tested on: SF-295 CNS
# [40] = tested on: MALME-3M melanoma
# [41] = tested on: SNB-19 CNS
# [42] = tested on: SF-539 CNS
# [43] = tested on: HCC-2998 colon
# [44] = tested on: ACHN renal
# [45] = tested on: CCRF-CEM leukemia
# [46] = tested on: OVCAR-5 ovarian
# [47] = tested on: SK-MEL-28 melanoma
# [48] = tested on: SW-620 colon
# [49] = tested on: OVCAR-8 ovarian
# [50] = tested on: NCI-H226 lung
# [51] = tested on: OVCAR-3 ovarian
# [52] = tested on: KM12 colon
# [53] = tested on: HCT-15 colon
# [54] = tested on: COLO 205 colon
# [55] = tested on: SF-268 CNS
# [56] = tested on: RPMI-8226 leukemia
# [57] = tested on: NCI-H522 lung
smiles,measurement,setting,value
O=C1Nc2c(Cl)cc(Cl)cc2/C1=N/N=C/c1ccccc1O,TGI,[1],36.1 µM
same,TGI,[2],35.1 µM
same,TGI,[3],34.9 µM
same,TGI,[4],62.8 µM
same,TGI,[5],32.1 µM
same,TGI,[6],32.1 µM
same,TGI,[7],54.7 µM
same,TGI,[8],> 100 µM
same,TGI,[9],40.9 µM
same,TGI,[10],34.4 µM
same,TGI,[11],88.1 µM
same,TGI,[12],51.7 µM
same,TGI,[13],68.1 µM
same,TGI,[14],51.6 µM
same,TGI,[15],62.5 µM
same,TGI,[16],85.8 µM
same,TGI,[17],88.4 µM
same,TGI,[18],72.2 µM
same,TGI,[19],66.3 µM
same,TGI,[20],> 100 µM
same,TGI,[21],53.5 µM
same,TGI,[22],39.9 µM
same,TGI,[23],46.5 µM
same,TGI,[24],36.9 µM
same,TGI,[25],41.3 µM
same,TGI,[26],49.7 µM
same,TGI,[27],91.5 µM
same,TGI,[28],47.4 µM
same,TGI,[29],40.4 µM
same,TGI,[30],31.8 µM
same,TGI,[31],47.5 µM
same,TGI,[32],49.8 µM
same,TGI,[33],40.3 µM
same,TGI,[34],94.2 µM
same,TGI,[35],50.7 µM
same,TGI,[36],35.7 µM
same,TGI,[37],48.2 µM
same,TGI,[38],> 100 µM
same,TGI,[39],47.7 µM
same,TGI,[40],88.4 µM
same,TGI,[41],> 100 µM
same,TGI,[42],41.6 µM
same,TGI,[43],34.3 µM
same,TGI,[44],> 100 µM
same,TGI,[45],58.7 µM
same,TGI,[46],48.7 µM
same,TGI,[47],40.3 µM
same,TGI,[48],59.3 µM
same,TGI,[49],> 100 µM
same,TGI,[50],74.6 µM
same,TGI,[51],34 µM
same,TGI,[52],68.4 µM
same,TGI,[53],51 µM
same,TGI,[54],31.4 µM
CN(C)CCCNC(=O)CCNC(=O)c1cc(NC(=O)c2cc(NC(=O)c3cc(NC(=O)CCCNC(=O)c4cc(NC(=O)c5cc(NC(=O)c6nccn6C)cn5C)cn4C)cn3C)cn2C)cn1C,TGI,[1],> 100 µM
same,TGI,[2],> 100 µM
same,TGI,[55],> 100 µM
same,TGI,[3],> 100 µM
same,TGI,[4],> 100 µM
same,TGI,[6],> 100 µM
same,TGI,[7],> 100 µM
same,TGI,[8],> 100 µM
same,TGI,[9],> 100 µM
same,TGI,[10],> 100 µM
same,TGI,[11],> 100 µM
same,TGI,[12],> 100 µM
same,TGI,[13],> 100 µM
same,TGI,[14],> 100 µM
same,TGI,[15],> 100 µM
same,TGI,[16],> 100 µM
same,TGI,[17],> 100 µM
same,TGI,[18],> 100 µM
same,TGI,[19],> 100 µM
same,TGI,[20],> 100 µM
same,TGI,[21],> 100 µM
same,TGI,[22],> 100 µM
same,TGI,[24],> 100 µM
same,TGI,[56],> 100 µM
same,TGI,[25],> 100 µM
same,TGI,[26],> 100 µM
same,TGI,[27],> 100 µM
same,TGI,[28],> 100 µM
same,TGI,[29],> 100 µM
same,TGI,[30],> 100 µM
same,TGI,[31],> 100 µM
same,TGI,[32],> 100 µM
same,TGI,[33],> 100 µM
same,TGI,[34],> 100 µM
same,TGI,[35],> 100 µM
same,TGI,[37],> 100 µM
same,TGI,[57],> 100 µM
same,TGI,[38],> 100 µM
same,TGI,[39],> 100 µM
same,TGI,[40],> 100 µM
same,TGI,[41],> 100 µM
same,TGI,[42],> 100 µM
same,TGI,[43],> 100 µM
same,TGI,[44],> 100 µM
same,TGI,[45],> 100 µM
same,TGI,[46],> 100 µM
same,TGI,[47],> 100 µM
same,TGI,[48],> 100 µM
same,TGI,[49],> 100 µM
same,TGI,[50],> 100 µM
same,TGI,[51],> 100 µM
same,TGI,[52],> 100 µM
same,TGI,[53],> 100 µM
same,TGI,[54],> 100 µM
